Measured values published in publication PMC6828666, “Discovery of holoenzyme-disrupting chemicals as substrate-selective CK2 inhibitors” (Scientific Reports, 2019).
“And” between values parts separate entries of the source, which are not always exact repeats. Identical values can stand only once. “Also recorded” adds a separate entry of the source.

Legend:
CK2α2β2 holoenzyme = target: T1, CK2α2β2 holoenzyme (Homo sapiens, UniProt P68400); experiment: CK2 kinase assay with CK2β-dependent peptide substrate (eIF2-derived); type: biochemical; settings: for IC50: phosphorylation of CK2β-dependent peptide substrate
T1 construct: made in house; host or cells: Escherichia coli (CK2α)
T1 sequence (P68400 whole entry): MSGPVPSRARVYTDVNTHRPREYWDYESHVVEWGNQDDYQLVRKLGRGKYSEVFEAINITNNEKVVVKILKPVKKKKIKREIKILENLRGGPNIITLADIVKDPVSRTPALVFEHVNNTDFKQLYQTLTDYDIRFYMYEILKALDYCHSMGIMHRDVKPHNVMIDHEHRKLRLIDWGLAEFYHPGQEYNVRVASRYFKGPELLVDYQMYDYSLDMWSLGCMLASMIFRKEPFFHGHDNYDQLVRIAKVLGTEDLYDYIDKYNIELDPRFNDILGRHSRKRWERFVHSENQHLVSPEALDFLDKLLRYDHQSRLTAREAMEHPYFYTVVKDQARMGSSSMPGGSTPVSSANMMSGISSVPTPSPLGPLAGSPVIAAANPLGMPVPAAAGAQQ
Protocol: First, all the compounds were dissolved at 200 μM in 50 mM Tris-HCl pH 7.5 buffer containing 0.1 M NaCl and 5% DMSO; the compounds that precipitated under these conditions were discarded. The 32 remaining compounds were diluted at 200 μM in the kinase buffer and centrifuged at 14,000 g. The supernatant was then assayed for ability to inhibit phosphorylation of a CK2β-dependent peptide substrate. For this, a 22-residue long N-terminal fragment of the eukaryotic translation initiation factor 2 (eIF2), known to be exclusively phosphorylated by the CK2α2β2 holoenzyme[4] was used as a substrate. […]
Final concentration of ATP was 100 μM. Assays were performed under linear kinetic conditions for 5 min at room temperature before termination by the addition of 60 μL of 4% TCA. ^32P incorporation in peptide substrate was determined as previously described. […]

CK2α = CK2α (Homo sapiens, UniProt P68400); experiment: SPR binding studies on captured GST-CK2α; settings: surface plasmon resonance
Sequence of CK2α (P68400 whole entry): as above
Protocol: SPR competition studies (Fig. 2i) were performed using a BIAcore 3000 instrument (BIAcore AB) equipped with a CM5 sensor chip (BIAcore AB). After activation with a solution of N-hydroxysuccinimide and N-ethyl-N-(dimethylaminopropyl)carbodiimide hydrochloride (coupling solution BIAcore AB), the anti-GST antibody diluted at 30 μg/ml in 10 mM acetate buffer pH 5.0 was injected at a flow rate of 5 μL/min for 7 min. All the surfaces were blocked with a 3 min injection at 10 μL/min of 1 M ethanolamine, pH 8.0. GST-CK2α (50 μg/ml) was immobilized on the surface at a flow rate of 5 μL/min in HBS (10 mM Hepes pH 7.3, 0.15 M NaCl, 3 mM EDTA, 0.005% polysorbate 20). MBP-CK2β diluted at 50 μg/ml in HBS buffer was injected over the surface at a flow rate of 5 μL/min in presence of various compound 1 concentration. Regeneration of the surfaces was achieved by injection of 10 mM glycine-HCl pH 2.2. SPR binding studies (Supplementary Fig. S7) were performed using a Reichert SR7000DC instrument optical biosensor (Reichert Technologies) equipped with a CMD500m sensor chip obtained from XanTec Bioanalytics. CK2α was immobilized by a capturing approach using a monoclonal anti-GST antibody (27 kDa, Clone GST-R 6G9 produced in rat, SAB4200055 Sigma Aldrich). Prior to use, the anti-GST antibodies were purified twice by micro dialysis at 4 °C (Membrane: dialysis tubing benzoylated, 9 mm, D2272-5FT) in 10 mM sodium acetate, pH = 5. Anti-GST antibodies were immobilized using amine-coupling chemistry at 12 °C. The surfaces of all two flow cells were activated for 7 min with a 1:1 mixture of 0.1 M NHS (N-hydroxysuccinimide) and 0.1 M EDC (3-(N,N-dimethylamino) propyl-N-ethylcarbodiimide) at a flow rate of 10 μL/min. The antibody at a concentration of 30 μg/mL in 10 mM sodium acetate, pH 5.0, was immobilized at a density of 2000 RU on flow cell 2; flow cell 1 was left blank to serve as a reference surface. All the surfaces were blocked with a 3 min injection at 10 μL/min of 1 M ethanolamine, pH 8.0. GST tagged CK2α at a concentration of 50 μg/mL in 10 mM HEPES, 150 mM NaCl, 3 mM EDTA, 0.005% (v/v) polysorbate 20, pH = 7.4 was captured at a density of 900 RU on flow cell 2. In order to collect kinetic binding data, analytes in 10 mM HEPES, 150 mM NaCl, 3 mM EDTA, 0.005% (v/v) polysorbate 20, 1% DMSO (v/v), 100 μM ATP, pH = 7.4 were injected over the two flow cells at concentrations of 50, 25, 12.5, 6.25, 3.12, 1.56 μM at a flow rate of 25 μL/min and at a temperature of 25 °C. The complex was allowed to associate and dissociate for 120 s. Duplicate injections (in random order) of each sample and a buffer blank were flowed over the two surfaces. Affinities were obtained after treatments (DMSO calibration, blank and references subtractions) using the software Scrubber 2.0c.
Fig. S7. Binding kinetics of compounds 2-6 by surface plasmon resonance. For each compound, sensorgrams (black line) and global fits (orange line) are depicted with the corresponding chemical structure and the fitted kinetics parameters. Experiments show representative data of two identical repeats.

MDA-MB231 cells = experiment: Cell death by propidium iodide live-cell imaging (IncuCyte); type: cell-based; settings: for effect of pan-caspase inhibitor Z-VAD on compound-induced cell death: 80 μM compound, 20 μM Z-VAD
Protocol: Figure 5 Cellular effects of compounds 3, 4 and 6. MCF10A cells were incubated for 24 h with either DMSO or 30 μM TAT or 30 μM TAT-Pc or 25 μM 6 (a) or with increasing concentrations of 6 (b) or 3 (c). MCF10A cells were incubated for 48 h with either DMSO or with increasing concentrations of 3 or 6 (d). Cells were then lysed and analyzed by western blot with the indicated antibodies. Blot images are representative of at least three independent experiments. Uncropped blots are shown in Supplementary Fig. S16. (e) MDA-MB231 cells were treated with 40 μM 6 (⚬), 4 (▴) or 3 (X). (f) MDA-MB231 cells were treated for 30 h with increasing concentrations of 6 (⚬) or 4 (▴). Insert: cells were treated for 30 h with 80 μM 6 or 10 μM CX-4945. (g) Cells were incubated with 80 μM 6 or 4 in the absence or presence of 20 μM Z-VAD. […] (h) MDA-MB231 cells (⚬) or MCF10A cells (⦁) were incubated for 24 h with 80 μM 6. Cell death was automatically quantified from images captured every 3 h for the duration of the experiments using an Essen IncuCyte Zoom live-cell microscopy incubator. Error bars represent the SEM of two biological replicates derived from technical triplicates.
Cells grown on 96-well flat-bottomed plates (Corning Falcon) were tracked using an Essen IncuCyte Zoom live-cell microscopy instrument, an automated live cell imager with high-throughput capabilities and built-in data analysis. Experiments were conducted at 37 °C and 5% CO2. The software incorporated into the IncuCyte Zoom was used to analyze the images.
Cells plated at equal density (2 × 10^4 cells/well) were treated with the indicated inhibitors in cell culture medium containing 0.5 μg/ml Propidium iodide (Sigma-Aldrich). Images of PI-stained red fluorescent cells were captured every 3 h for the duration of the experiment. For apoptosis detection, 50 μL/mL fluorochrome-conjugated Annexin V (Molecular Probes) was added to the medium together with Propidium iodide and apoptotic cell numbers were calculated.

[1] = compound at 50 μM, CK2β-dependent peptide substrate

inhibition at 50 µM (CK2α2β2 holoenzyme; [1]) | Kd (CK2α) | Structure (SMILES) | inhibition of CK2β-dependent phosphorylation upon addition of Triton X-100 (CK2α2β2 holoenzyme; 0.01% vol/vol Triton X-100, 50 μM compound) | reversibility of inhibition (CK2α2β2 holoenzyme; dilution of the reaction mixture or gel filtration) | IC50 (CK2α2β2 holoenzyme) | effect of pan-caspase inhibitor Z-VAD on compound-induced cell death (MDA-MB231 cells) | time to retraction of membrane extension by the majority of cells (MDA-MB231 cells; MDA-MB231, 40 μM) | concentration at which cell death was already detectable (MDA-MB231 cells; MDA-MB231, 30 h) | cell death (MDA-MB231 cells; MDA-MB231, 30 h, 80 μM) | cell death (MDA-MB231 cells; MDA-MB231, 40 μM) | Inhibition % at 50 μM (CK2α2β2 holoenzyme; [1]) | sensitivity of MDA-MB231 cells to compound-mediated cell death compared with MCF10A cells (MDA-MB231 cells; 80 μM, 24 h)
57% | 41 ± 5 µM | O=C(OCC1CCN(CCNS(=O)(=O)c2ccccc2)CC1)c1c[nH]c2ccccc12 [Compound 4, (1-(2-(Phenylsulfonamido)ethyl)piperidin-4-yl)methyl 1H-indole-3-carboxylate] | – | – | 45 µM | not significantly affected | 9 h | 20 µM | massive | – | – | –
28% | 54 ± 5 µM | CS(=O)(=O)NCCN1CCC(COC(=O)c2c[nH]c3ccccc23)CC1 [Compound 3, (1-(2-(Methylsulfonamido)ethyl)piperidin-4-yl)methyl 1H-indole-3-carboxylate] | – | – | – | – | – | – | – | without effect | – | –
– | – | COc1[nH]c2ccc(F)cc2c1C(=O)OCC1CCN(CCNS(=O)(=O)c2ccccc2)CC1.Cl [Compound 6] | – | – | – | significantly affected; also recorded: significantly attenuated | 9 h | 20 µM | massive | – | 80% | much more sensitive

Structure (SMILES) | inhibition at 50 µM (CK2α2β2 holoenzyme; [1]) | Kd (CK2α) | inhibition of CK2β-dependent phosphorylation upon addition of Triton X-100 (CK2α2β2 holoenzyme; 0.01% vol/vol Triton X-100, 50 μM compound) | reversibility of inhibition (CK2α2β2 holoenzyme; dilution of the reaction mixture or gel filtration) | IC50 (CK2α2β2 holoenzyme) | effect of pan-caspase inhibitor Z-VAD on compound-induced cell death (MDA-MB231 cells) | time to retraction of membrane extension by the majority of cells (MDA-MB231 cells; MDA-MB231, 40 μM) | concentration at which cell death was already detectable (MDA-MB231 cells; MDA-MB231, 30 h) | cell death (MDA-MB231 cells; MDA-MB231, 30 h, 80 μM) | cell death (MDA-MB231 cells; MDA-MB231, 40 μM) | Inhibition % at 50 μM (CK2α2β2 holoenzyme; [1]) | sensitivity of MDA-MB231 cells to compound-mediated cell death compared with MCF10A cells (MDA-MB231 cells; 80 μM, 24 h)
COc1[nH]c2ccc(F)cc2c1C(=O)OCC1CCN(CCNS(C)(=O)=O)CC1 [Compound 1] | 48% | – | not affected | reversed | ~50 µM and 50 µM | – | – | – | – | – | – | –
